Source: US8765211B2, “Method for coating metal implants with therapeutic mixtures” (Enbio Limited, priority 2009, dated 2014)

Experiments:
[1] = Elution of vancomycin from beaded Ti coupons with zero, one or two PLGA layers in PBS buffer (UV/VIS); format: physicochemical; settings: beaded Ti coupon
Description: A 25 mm diameter coupon with a sintered titanium beaded surface was used as the test substrate. […] Vancomycin was dissolved in water to produce a solution of 0.5 g/25 ml. 0.5 ml of this solution was then applied in droplet form to the surface of each sample coupon and allowed to dry in an oven at 40° C. This technique was repeated three times to give a total loading of 1.5 ml of the vancomycin solution per coupon.
PLGA polymer (2.5 g) was dissolved in 50 mL of dichloromethane solvent. The polymer solution was added to the surface of the drug loaded coupons in a dropwise fashion similar to that employed to deploy the drug. Again, three applications of 0.5 ml were applied to produce a single layer of polymer with sufficient time being allowed between each application to allow the solvent to evaporate.
To investigate the effect of polymer coating thickness, a second set of three PLGA solutions were applied to form a batch of samples with 6 applications of polymer in total. This produced a sample with twice the coating thickness and is therefore herein referred to as having two layers of polymer.
All samples were then treated with an abrasive blasting process as described in WO2008/033867. The equipment platform was a Comco Standard Lathe. Two nozzles were employed to deliver an abrasive and a dopant respectively. The abrasive chosen was MCD 106 microns (Himed, NY, USA) and the dopant was hydroxyapatite (25/60 microns, SAI, France). The abrasive was delivered at a pressure of 75 psi and the dopant was delivered at 90 psi. The substrate was moved at a speed of 13 mm/sec relative to the nozzles.
Drug elution studies were carried out in PBS buffer solution and drug concentrations were determined using an Agilent 8453 UV/VIS spectrophotometer system. The elution profile of samples with zero, one and two layers of polymer were determined over 48 hours and the % vancomycin elution was determined. […] In the absence of any polymer coating, the drug had effectively eluted form the surface within 30 minutes and no further elution was detected.

[2] = Elution of gentamicin sulphate from PLGA-coated, abrasively blasted porous beaded titanium hip stem in phosphate saline buffer (Abbott TDx/FLX); format: physicochemical; settings: Summit hip stem with Porocoat finish, GS plus PLGA overcoat, blasted with MCD/HA; immersed in 300 ml phosphate saline buffer
Description: This example describes the modification of an implantable titanium hip stem containing a porous beaded surface. A Summit hip stem (DePuy) with a Porocoat finish was used as the substrate. The active chosen for study was gentamicin sulphate (GS).
The stem was first coated GS by dissolving 0.6 g of GS in 10 ml of water and applying the solution to the surface drop wise. In total, 0.1575 g of GS was added to the surface. Once dry, a polymer overcoat was applied by adding a solution of PLGA (3.5 g of PLGA in 10 ml of dichloromethane) dropwise and allowing to dry The coated hip stem was then abrasively blasted as per WO2008/033867 to remove the outer layer of polymer. Blasting was carried out in a Comco Standard Lathe operating at a pressure of 100 psi. MCD abrasive grit (Supplied by Himed, New York) was used as the abrasive and HA (SAI, France) was used as the dopant. Each powder was fed in a separate stream at the surface at a pressure of 100 psi and with an offset distance of 15-25 mm. The blast device was moved over the surface at a speed of approximately 100 mm/sec.
Elution of the drug from the surface was evaluated by immersing the entire hip stem in 300 ml of phosphate saline buffer and measuring drug concentration in solution using an Abbott TDx/FLX system. […]

| duration of gentamicin release [2] [days] | time in which the bulk of the drug is released [2] | Compound | time by which the drug had effectively eluted from the surface ([1]; no polymer coating (zero layers)) [min] | time to complete elution ([1]; single layer of polymer (3 applications of PLGA)) | elution duration ([1]; twice the thickness of polymer (6 applications of PLGA, two layers)) [h] |
| --- | --- | --- | --- | --- | --- |
| – | – | CN[C@H](CC(C)C)C(=O)N[C@H]1C(=O)N[C@@H](CC(N)=O)C(=O)N[C@H]2C(=O)N[C@H]3C(=O)N[C@H](C(=O)N[C@H](C(=O)O)c4cc(O)cc(O)c4-c4cc3ccc4O)[C@H](O)c3ccc(c(Cl)c3)Oc3cc2cc(c3O[C@@H]2O[C@H](CO)[C@@H](O)[C@H](O)[C@H]2O[C@H]2C[C@](C)(N)[C@H](O)[C@H](C)O2)Oc2ccc(cc2Cl)[C@H]1O [vancomycin] | ≤ 30 | up to 10 hours | 24 |
| 4 | within the first day | gentamicin sulphate | – | – | – |
